Measurements published in patent publication US20200002283A1, “PYRAZOLE DERIVATIVES HAVING ACTIVITY AGAINST PAIN” (priority 2016, published 2020).
Read-outs that look alike come from different tables or passages of the source.

Legend:
[1] = molecular target: T1, human μ-opioid receptor (Homo sapiens, UniProt P35372); experiment: Human μ-opioid receptor radioligand assay ([3H]-DAMGO); assay type: binding
T1 construct: expressed in transfected cells; host or cells: CHO-K1
Protocol: Human μ-Opioid Receptor Radioligand Assay
To investigate binding properties of test compounds to human μ-opioid receptor, transfected CHO-K1 cell membranes and [^3H]-DAMGO (Perkin Elmer, ES-542-C), as the radioligand, were used. The assay was carried out with 20 μg of membrane suspension, 1 nM of [^3H]-DAMGO in either absence or presence of either buffer or 10 μM Naloxone for total and non-specific binding, respectively. Binding buffer contained Tris-HCl 50 mM, MgCl2 5 mM at pH 7.4. Plates were incubated at 27° C. for 60 minutes. After the incubation period, the reaction mix was then transferred to MultiScreen HTS, FC plates (Millipore), filtered and plates were washed 3 times with ice-cold 10 mM Tris-HCL (pH 7.4). Filters were dried and counted at approximately 40% efficiency in a MicroBeta scintillation counter (Perkin-Elmer) using EcoScint liquid scintillation cocktail.

[2] = molecular target: Human α2δ-1 subunit of Cav2.2 calcium channel (Homo sapiens, UniProt P54289); experiment: Human α2δ-1 subunit of Cav2.2 calcium channel assay ([3H]-Gabapentin binding)
Chain of Human α2δ-1 subunit of Cav2.2 calcium channel (P54289 25-1103): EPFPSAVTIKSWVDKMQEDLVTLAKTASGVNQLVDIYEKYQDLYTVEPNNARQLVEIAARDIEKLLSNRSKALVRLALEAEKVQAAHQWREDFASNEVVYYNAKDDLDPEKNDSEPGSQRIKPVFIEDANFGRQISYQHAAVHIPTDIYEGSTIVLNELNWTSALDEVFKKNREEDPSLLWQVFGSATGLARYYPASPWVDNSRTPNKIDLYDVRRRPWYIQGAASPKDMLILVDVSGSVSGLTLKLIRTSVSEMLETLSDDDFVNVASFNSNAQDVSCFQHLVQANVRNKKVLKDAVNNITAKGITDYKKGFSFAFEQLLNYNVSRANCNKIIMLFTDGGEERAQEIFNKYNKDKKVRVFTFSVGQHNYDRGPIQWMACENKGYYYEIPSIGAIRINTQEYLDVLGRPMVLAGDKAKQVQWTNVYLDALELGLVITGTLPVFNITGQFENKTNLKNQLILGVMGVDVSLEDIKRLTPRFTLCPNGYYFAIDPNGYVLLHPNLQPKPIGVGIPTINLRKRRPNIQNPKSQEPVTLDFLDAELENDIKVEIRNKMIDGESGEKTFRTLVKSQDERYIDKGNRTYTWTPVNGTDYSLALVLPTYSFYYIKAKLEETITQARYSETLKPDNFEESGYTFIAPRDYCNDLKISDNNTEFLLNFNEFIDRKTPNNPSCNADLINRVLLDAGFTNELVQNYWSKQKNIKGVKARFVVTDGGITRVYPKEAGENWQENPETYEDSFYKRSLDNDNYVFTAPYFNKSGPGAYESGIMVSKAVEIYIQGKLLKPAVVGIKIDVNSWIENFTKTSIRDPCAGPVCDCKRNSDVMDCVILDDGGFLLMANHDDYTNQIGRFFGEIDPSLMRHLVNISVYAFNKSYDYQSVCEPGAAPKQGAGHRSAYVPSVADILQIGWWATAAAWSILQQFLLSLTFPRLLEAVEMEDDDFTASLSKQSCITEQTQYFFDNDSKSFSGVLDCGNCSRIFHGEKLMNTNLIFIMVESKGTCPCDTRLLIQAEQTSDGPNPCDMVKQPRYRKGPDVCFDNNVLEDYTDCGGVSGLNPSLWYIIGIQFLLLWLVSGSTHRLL
Protocol: Human α2δ-1 Subunit of Cav2.2 Calcium Channel Assay
Human α2δ-1 enriched membranes (2.5 μg) were incubated with 15 nM of radiolabeled [3H]-Gabapentin in assay buffer containing Hepes-KOH 10 mM, pH 7.4. NSB (non specific binding) was measured by adding 10 μM pregabalin. After 60 min incubation at 27° C., binding reaction was terminated by filtering through Multiscreen GF/C (Millipore) presoaked in 0.5% polyethyleneimine in Vacuum Manifold Station, followed by 3 washes with ice-cold filtration buffer containing 50 mM Tris-HCl, pH 7.4. Filter plates were dried at 60° C. for 1 hour and 30 μl of scintillation cocktail were added to each well before radioactivity reading. Readings were performed in a Trilux 1450 Microbeta radioactive counter (Perkin Elmer).

[3] = transfected CHO-K1 cell membranes, 1 nM [3H]-DAMGO, read-out: μ binding
[4] = human α2δ-1 enriched membranes, 15 nM [3H]-Gabapentin, read-out: α2δ-1 binding

T1 sequence (P35372 whole entry): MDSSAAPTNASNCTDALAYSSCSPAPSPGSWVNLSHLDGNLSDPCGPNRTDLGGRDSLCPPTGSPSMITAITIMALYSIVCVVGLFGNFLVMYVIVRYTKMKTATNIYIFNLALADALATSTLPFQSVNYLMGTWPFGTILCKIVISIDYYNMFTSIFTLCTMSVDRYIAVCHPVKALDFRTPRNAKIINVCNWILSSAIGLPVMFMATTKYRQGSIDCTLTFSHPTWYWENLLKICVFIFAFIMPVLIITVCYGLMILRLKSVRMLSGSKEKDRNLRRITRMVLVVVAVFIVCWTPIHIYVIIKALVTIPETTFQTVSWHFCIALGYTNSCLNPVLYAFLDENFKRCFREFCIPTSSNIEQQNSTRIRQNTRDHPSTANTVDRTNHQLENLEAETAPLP

Row | Ki [1, 3] [nM] | Ki [2, 4] [nM] | Structure (SMILES) | Ki [1] [nM] | Ki [2] [nM]
1 | > 500 | 3000 to 5000 | NCc1cc(Cc2ccccc2)n(-c2cccc(O)c2)n1 [Example 36, 3-[3-(Aminomethyl)-5-benzyl-1H-pyrazol-1-yl]phenol] | – | –
2 | – | – | COc1ccc(-n2nc(CN)cc2Cc2ccc(O)cc2)c(Cl)c1 [Example 37, 4-{[3-(Aminomethyl)-1-(2-chloro-4-methoxyphenyl)-1H-pyrazol-5-yl]methyl}phenol] | < 100 | 500 to 3000
3 | – | – | NCc1cc(Cc2ccc(O)cc2)n(-c2ccc(Cl)cc2Cl)n1 [Example 38, 4-{[3-(Aminomethyl)-1-(2,4-dichlorophenyl)-1H-pyrazol-5-yl]methyl}phenol] | < 100 | 500 to 3000
4 | > 500 | 500 to 3000 | NCc1cc(Cc2ccc(O)cc2)n(-c2ccccc2Cl)n1 [Example 39, 4-{[3-(Aminomethyl)-1-(2-chlorophenyl)-1H-pyrazol-5-yl]methyl}phenol] | – | –
5 | > 500 | 3000 to 5000 | NCc1cc(Cc2ccc(O)cc2)n(-c2ccc(Cl)cc2)n1 [Example 40, 4-{[3-(Aminomethyl)-1-(4-chlorophenyl)-1H-pyrazol-5-yl]methyl}phenol] | – | –
6 | – | – | NCc1cc(Cc2ccc(O)cc2)n(-c2ccc(O)cc2Cl)n1 [Example 41, 4-[3-(Aminomethyl)-5-(4-hydroxybenzyl)-1H-pyrazol-1-yl]-3-chlorophenol] | < 100 | > 5000
7 | – | – | NCc1cc(Cc2ccc(O)cc2)n(-c2ccc(F)cc2Cl)n1 [Example 42, 4-{[3-(Aminomethyl)-1-(2-chloro-4-fluorophenyl)-1H-pyrazol-5-yl]methyl}phenol] | 100 to 500 | 500 to 3000
8 | > 500 | > 5000 | NCc1cc(Cc2ccc(O)cc2)n(-c2ccccn2)n1 [Example 43, 4-{[3-(Aminomethyl)-1-(pyridin-2-yl)-1H-pyrazol-5-yl]methyl}phenol] | – | –
9 | – | – | CC(C)Cn1nc(CN)cc1Cc1ccc(O)cc1 [Example 44, 4-{[3-(Aminomethyl)-1-isobutyl-1H-pyrazol-5-yl]methyl}phenol] | > 500 | < 500
10 | > 500 | 500 to 3000 | NCc1cc(Cc2ccc(O)cc2)n(Cc2ccc(Cl)cc2)n1 [Example 45, 4-{[3-(Aminomethyl)-1-(4-chlorobenzyl)-1H-pyrazol-5-yl]methyl}phenol] | – | –
11 | > 500 | 3000 to 5000 | NCc1cc(Cc2ccc(O)cc2)n(Cc2ccccc2)n1 [Example 46, 4-{[3-(Aminomethyl)-1-benzyl-1H-pyrazol-5-yl]methyl}phenol] | – | –
12 | > 500 | 500 to 3000 | NCc1cc(Cc2ccc(O)cc2)n(Cc2ccccc2Cl)n1 [Example 47, 4-{[3-(Aminomethyl)-1-(2-chlorobenzyl)-1H-pyrazol-5-yl]methyl}phenol] | – | –
13 | > 500 | 500 to 3000 | NCc1cc(Cc2ccc(O)cc2)n(Cc2ccc(Cl)cc2Cl)n1 [Example 48] | – | –
14 | > 500 | > 5000 | CC(c1ccccc1)n1nc(CN)cc1Cc1ccc(O)cc1 (stereo not drawn) [Example 49, 4-{[3-(Aminomethyl)-1-(1-phenylethyl)-1H-pyrazol-5-yl]methyl}phenol] | – | –
15 | > 500 | 3000 to 5000 | CCNCc1cc(Cc2ccc(O)cc2)n(CC(C)C)n1 [Example 50, 4-({3-[{Ethylamino)methyl]-1-isobutyl-1H-pyrazol-5-yl}methyl)phenol] | – | –
16 | – | – | CC(N)c1cc(Cc2ccc(O)cc2)n(-c2ccc(Cl)cc2Cl)n1 (stereo not drawn) [Example 51, 4-{[3-(1-Aminoethyl)-1-(2,4-dichlorophenyl)-1H-pyrazol-5-yl]methyl}phenol] | < 100 | < 500
17 | – | – | CC(N)c1cc(Cc2ccc(O)c(F)c2)n(-c2ccc(Cl)cc2Cl)n1 (stereo not drawn) [Example 52, 4-{[3-(1-Aminoethyl)-1-(2,4-dichlorophenyl)-1H-pyrazol-5-yl]methyl}-2-fluorophenol] | < 100 | < 500
18 | – | – | CCCC(N)c1cc(Cc2ccc(O)c(F)c2)n(-c2ccc(Cl)cc2Cl)n1 (stereo not drawn) [Example 53, 4-{[3-(1-Aminobutyl)-1-(2,4-dichlorophenyl)-1H-pyrazol-5-yl]methyl}-2-fluorophenol] | < 100 | < 500

Row | Ki [1, 3] [nM] | Ki [2, 4] [nM] | Structure (SMILES) | Ki [1] [nM] | Ki [2] [nM]
19 | – | – | CCC(N)c1cc(Cc2ccc(O)cc2)n(-c2ccc(Cl)cc2Cl)n1 (stereo not drawn) [Example 54, 4-{[3-(1-Aminopropyl)-1-(2,4-dichlorophenyl)-1H-pyrazol-5-yl]methyl}phenol] | 100 to 500 | 500 to 3000
20 | > 500 | 500 to 3000 | CC(N)c1cc(C(C)(C)c2ccc(O)cc2)n(-c2ccc(Cl)cc2Cl)n1 (stereo not drawn) [Example 55, 4-{2-[3-(1-Aminoethyl)-1-(2,4-dichlorophenyl)-1H-pyrazol-5-yl]propan-2-yl]phenol] | – | –
21 | – | – | CC(C)(N)c1cc(Cc2ccc(O)c(F)c2)n(-c2ccc(Cl)cc2Cl)n1 [Example 56, 4-{[3-(2-Aminopropan-2-yl)-1-(2,4-dichlorophenyl)-1H-pyrazol-5-yl]methyl}-2-fluorophenol] | < 100 | 3000 to 5000
22 | – | – | CC(C)(N)c1cc(Cc2ccc(O)cc2)n(-c2ccc(Cl)cc2Cl)n1 [Example 57, 4-{[3-(2-Aminopropan-2-yl)-1-(2,4-dichlorophenyl)-1H-pyrazol-5-yl]methyl}phenol] | < 100 | 3000 to 5000
23 | – | – | NCCc1cc(Cc2ccc(O)cc2)n(-c2ccc(Cl)cc2Cl)n1 [Example 58, 4-{[3-(2-Aminoethyl)-1-(2,4-dichlorophenyl)-1H-pyrazol-5-yl]methyl}phenol] | < 100 | 3000 to 5000
24 | – | – | CC(CN)c1cc(Cc2ccc(O)cc2)n(-c2ccc(Cl)cc2Cl)n1 (stereo not drawn) [Example 59, 4-{[3-(1-Aminopropan-2-yl)-1-(2,4-dichlorophenyl)-1H-pyrazol-5-yl]methyl}phenol] | < 100 | > 5000
25 | – | – | CCC(CN)c1cc(Cc2ccc(O)cc2)n(-c2ccc(Cl)cc2Cl)n1 (stereo not drawn) [Example 60, 4-{[3-(1-Aminobutan-2-yl)-1-(2,4-dichlorophenyl)-1H-pyrazol-5-yl]methyl}phenol] | < 100 | > 5000
26 | – | – | C[C@H](N)c1cc(Cc2ccc(O)cc2)n(-c2ccc(Cl)cc2Cl)n1 [Example 61, (S)-4-{[3-(1-Aminoethyl)-1-(2,4-dichlorophenyl)-1H-pyrazol-5-yl]methyl}phenol] | < 100 | < 500
27 | – | – | C[C@@H](N)c1cc(Cc2ccc(O)cc2)n(-c2ccc(Cl)cc2Cl)n1 [Example 62, (R)-4-{[3-(1-Aminoethyl)-1-(2,4-dichlorophenyl)-1H-pyrazol-5-yl]methyl}phenol] | < 100 | 500 to 3000
28 | – | – | CC(N)c1cc(Cc2ccc(O)cc2)n(C2CCCCC2)n1 (stereo not drawn) [Example 65, 4-{[3-(1-Aminoethyl)-1-cyclohexyl-1H-pyrazol-5-yl]methyl}phenol] | > 500 | < 500
29 | > 500 | > 5000 | CC(N)c1cc(Cc2ccc(O)cc2)n(C2CCOCC2)n1 (stereo not drawn) [Example 66, 4-{[3-(1-Aminoethyl)-1-(tetrahydro-2H-pyran-4-yl)-1H-pyrazol-5-yl]methyl}phenol] | – | –
30 | > 500 | > 5000 | CC(N)c1cc(Cc2ccc(O)cc2)n(CCc2ccccc2)n1 (stereo not drawn) [Example 67, 4-{[3-(1-Aminoethyl)-1-phenethyl-1H-pyrazol-5-yl]methyl}phenol] | – | –
31 | – | – | CC(N)Cc1cc(Cc2ccc(O)cc2)n(-c2ccc(Cl)cc2Cl)n1 (stereo not drawn) [Example 68, 4-{[3-(2-Aminopropyl)-1-(2,4-dichlorophenyl)-1H-pyrazol-5-yl]methyl}phenol] | < 100 | > 5000
32 | – | – | COc1ccc(-n2nc([C@@H](C)N)cc2Cc2ccc(O)cc2)c(Cl)c1 [Example 69, (R)-4-{[3-(1-Aminoethyl)-1-(2-chloro-4-methoxyphenyl)-1H-pyrazol-5-yl]methyl}phenol] | 100 to 500 | > 5000
33 | – | – | COc1ccc(-n2nc([C@H](C)N)cc2Cc2ccc(O)cc2)c(Cl)c1 [Example 70, (S)-4-{[3-(1-Aminoethyl)-1-(2-chloro-4-methoxyphenyl)-1H-pyrazol-5-yl]methyl}phenol] | 100 to 500 | < 500
34 | – | – | NC(CO)c1cc(Cc2ccc(O)cc2)n(-c2ccc(Cl)cc2Cl)n1 (stereo not drawn) [Example 71, 4-{[3-(1-Amino-2-hydroxyethyl)-1-(2,4-dichlorophenyl)-1H-pyrazol-5-yl]methyl}phenol] | 100 to 500 | > 5000
35 | – | – | NC(CN1CCCCC1)c1cc(Cc2ccc(O)cc2)n(-c2ccc(Cl)cc2Cl)n1 (stereo not drawn) [Example 72, 4-({3-[1-Amino-2-(piperidin-1-yl)ethyl]-1-(2,4-dichlorophenyl)-1H-pyrazol-5-yl}methyl)phenol] | 100 to 500 | > 5000
36 | > 500 | > 5000 | NC(CN1CCOCC1)c1cc(Cc2ccc(O)cc2)n(-c2ccc(Cl)cc2Cl)n1 (stereo not drawn) [Example 73, 4-{[3-(1-Amino-2-morpholinoethyl)-1-(2,4-dichlorophenyl)-1H-pyrazol-5-yl]methyl}phenol] | – | –
